Source: patent US20080219973A1, “Pharmaceutical Composition Having Inhibitory Effect on Overproduction and Accumulation of Extracellular Matrix” (TEIJIN LIMITED, priority 1998, published 2008)

Assays:
Type in all cases: cell-based
rat mesangium cells [1] = assay: Suppressive activity of galectin-3 on the cellular death of rat mesangium cells (MTS tetrazolium conversion); settings: 50 μg/ml galectin-3; presence and absence of 0.4 ng/ml TGF-β; day 1-4; FIG. 3
Description: Rat mesangium cells were separated from Sprague-Dawley rats according to the method of Striker et al. (Striker, G. E., et al., Lab. Invest. (1985) 53; 123-128). The separated rat mesangium cells were cultured at 37° C. in the presence of 5% CO2 in the wells of a 96-well plate using an essential medium (DMEM/F12 (1:1) culture medium containing 60 μg/ml penicillin, 100 μg/ml streptomycin, manufactured by Gibco BRL) supplemented with 10% fetal bovine serum. After culturing to semi-confluence, the cultured rat mesangium cells were washed with the essential medium, cultured for 2 days in the essential medium supplemented with 0.1% bovine serum albumin (Sigma), and then were further cultured for 1 to 4 days in the essential medium supplemented with 0.1% bovine serum albumin (Sigma) containing 0 or 50 μg/ml galectin-3 and 0 or 0.4 ng/ml TGF-β. On day 1, 2, 3, and 4 after the addition of galectin-3 and TGF-β, the amount of the cultured rat mesangium cells that survived in their respective wells were measured using as an index the conversion from MTS tetrazolium (Cell Titer 96 Aqueous one solution manufactured by Promega) to formazan by the living cells.

rat mesangium cells [2] = assay: Promoting effect of galectin-3 on collagen type IV production by mesangium cells (sandwich ELISA); settings: 10 or 30 μg/ml galectin-3; 0-1.6 ng/ml TGF-β; day 3; FIG. 4
Description: Rat mesangium cells were separated in a similar manner to that of Example 3. The separated mesangium cells were cultured at 37° C. in the presence of 5% CO2 in the wells of a 96-well plate using an essential medium (DMEM/F12 (1:1) culture medium containing 60 μg/ml penicillin, 100 μg/ml streptomycin, manufactured by Gibco BRL) supplemented with 10% fetal bovine serum. After culturing to confluence, the cultured rat mesangium cells were washed with the essential medium, cultured for 1 to 2 days in the essential medium supplemented with 0.1% bovine serum albumin (Sigma), and then were further cultured for 3 days in the essential medium supplemented with 0.1% bovine serum albumin (Sigma) containing 0, 10 or 30 μg/ml galectin-3 and 0, 0.1, 0.4 or 1.6 ng/ml TGF-β. On day 3 after the addition of galectin-3 and TGF-β, the amount of type IV collagen accumulated in the culture liquid was measured using a sandwich ELISA method that employed a goat anti-type IV collagen antibody as the immobilized antibody and a biotin-labeled goat anti-type IV collagen antibody (Chemicon) as the primary antibody. The amount of type IV collagen in the culture liquid of each well was normalized by dividing it by the amount of the living cells in each well determined in a similar manner to that described in Example 3.

galectin-3 = galectin-3 (Homo sapiens, UniProt P17931); assay: Inhibition by galectin-3-binding inhibiting sugar of galectin-3-promoted collagen type IV production by rat mesangium cells; settings: 0.4 μg/ml galectin-3, 0.25-2 mM LNFP-I, day 2, FIG. 6
Sequence of galectin-3 (P17931 whole entry, species assumed): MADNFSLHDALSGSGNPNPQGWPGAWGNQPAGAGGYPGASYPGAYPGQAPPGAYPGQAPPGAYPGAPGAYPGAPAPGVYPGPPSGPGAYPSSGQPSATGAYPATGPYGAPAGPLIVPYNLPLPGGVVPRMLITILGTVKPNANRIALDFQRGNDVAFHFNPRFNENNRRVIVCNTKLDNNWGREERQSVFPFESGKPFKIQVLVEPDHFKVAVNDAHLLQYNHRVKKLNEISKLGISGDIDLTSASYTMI
Description: Rat mesangium cells were separated in a similar manner to that described in Example 3. The separated rat mesangium cells were cultured at 37° C. in the presence of 5% CO2 in the wells of a 96-well plate using an essential medium (DMEM/F12 (1:1) culture medium containing 60 μg/ml penicillin, 100 μg/ml streptomycin, manufactured by Gibco BRL) supplemented with 10% fetal bovine serum. […] On day 2 after the addition of galectin-3 and LNFP-I, the amount of type IV collagen accumulated in the culture liquid of each well was measured using a sandwich ELISA method that employed a goat anti-type IV collagen antibody (Chemicon) as an immobilized antibody and a biotin-labeled goat anti-type IV collagen antibody (Chemicon) as a primary antibody. The amount of type IV collagen in the culture medium of each well was normalized by dividing it by the amount of the living cells in each well determined in a similar manner to that described in Example 4.

Substance | cellular death of the rat mesangium cells (amount of surviving cells) (rat mesangium cells [1]) | production and/or accumulation of type IV collagen in culture liquid, normalized to living cells (rat mesangium cells [2]) | suppression of galectin-3-promoted production and/or accumulation of type IV collagen (galectin-3)
galectin-3: protein of about 30 Kd belonging to the family of β-galactoside binding protein; a lectin | suppress the cellular death | promotes the production and/or the accumulation of type IV collagen | 
lacto-n-fucopentaose I |  |  | suppresses the promotion of the production and/or the accumulation of type IV collagen
